Like-named read-outs stand apart in the source and are kept apart here.
Assays:
TNFα = test: Inhibition of TNFα in LPS-stimulated hPBMC (ELISA); type: cell-based; conditions: LPS-stimulated human PBMC, TNFα by ELISA; read-out: IC50s for TNFα
Experimental: Human peripheral blood mononuclear cells (hPBMC) from normal donors are obtained by Ficoll Hypaque (Pharmacia, Piscataway, N.J., USA) density centrifugation. Cells are cultured in RPMI 1640 (Life Technologies, Grand Island, N.Y., USA) supplemented with 10% AB+human serum (Gemini Bio-products, Woodland, Calif., USA), 2 mM L-glutamine, 100 U/ml penicillin, and 100 μg/ml streptomycin (Life Technologies).
PBMC (2×10^5 cells) are plated in 96-well flat-bottom Costar tissue culture plates (Corning, N.Y., USA) in triplicate. Cells are stimulated with LPS (from Salmonella abortus equi, Sigma cat. no. L-1887, St. Louis, Mo., USA) at 1 ng/ml final in the absence or presence of compounds. Compounds provided herein are dissolved in DMSO (Sigma) and further dilutions are done in culture medium immediately before use. The final DMSO concentration in all assays can be about 0.25%. Compounds are added to cells 1 hour before LPS stimulation. Cells are then incubated for 18-20 hours at 37° C. in 5% CO2, and supernatants are then collected, diluted with culture medium and assayed for TNFα levels by ELISA (Endogen, Boston, Mass., USA). IC50s are calculated using non-linear regression, sigmoidal dose-response, constraining the top to 100% and bottom to 0%, allowing variable slope (GraphPad Prism v3.02).
Potencies of racemic, (R)-, and (S)-pomalidomide in inhibiting TNFα were measured using procedures substantially similar to those described in Section 5.4 above.

IL-2 = test: Production of IL-2 in anti-CD3-stimulated purified T cells (ELISA); type: cell-based, human; conditions: T cells from PBMC on anti-CD3 (OKT3) coated plates, IL-2 by ELISA, read-out: EC50s for IL-2
Experimental: PBMC are depleted of adherent monocytes by placing 1×10^8 PBMC in 10 ml complete medium (RPMI 1640 supplemented with 10% heat-inactivated fetal bovine serum, 2 mM L-glutamine, 100 U/ml penicillin, and 100 μg/ml streptomycin) per 10 cm tissue culture dish, in 37° C., 5% CO2 incubator for 30-60 minutes. The dish is rinsed with medium to remove all non-adherent PBMC. T cells are purified by negative selection using the following antibody (Pharmingen) and Dynabead (Dynal) mixture for every 1×10^8 non-adherent PBMC: 0.3 ml Sheep anti-mouse IgG beads, 15 μl anti-CD16, 15 μl anti-CD33, 15 μl anti-CD56, 0.23 ml anti-CD19 beads, 0.23 ml anti-HLA class II beads, and 56 μl anti-CD14 beads. The cells and bead/antibody mixture is rotated end-over-end for 30-60 minutes at 4° C. Purified T cells are removed from beads using a Dynal magnet. Typical yield is about 50% T cells, 87-95% CD3′ by flow cytometry.
Tissue culture 96-well flat-bottom plates are coated with anti-CD3 antibody OKT3 at 5 μg/ml in PBS, 100 μl per well, incubated at 37° C. for 3-6 hours, then washed four times with complete medium 100 μl/well just before T cells are added. Compounds are diluted to 20 times of final in a round bottom tissue culture 96-well plate. Final concentrations are about 10 μM to about 0.00064 μM. A 10 mM stock of compounds provided herein is diluted 1:50 in complete for the first 20× dilution of 200 μM in 2% DMSO and serially diluted 1:5 into 2% DMSO. Compound is added at 10 μl per 200 μl culture, to give a final DMSO concentration of 0.1%. Cultures are incubated at 37° C., 5% CO2 for 2-3 days, and supernatants analyzed for IL-2 by ELISA (R&D Systems). […]
In addition, potencies of racemic, (R)-, and (S)-pomalidomide in promoting the production of IL-2 were measured using procedures substantially similar to those described in Section 5.5 above.

IC50 (TNFα) | EC50 (IL-2; Homo sapiens, T-cell) | EC50 (IL-2) | SMILES
0.013 µM | 0.0103 µM | – | Nc1cccc2c1C(=O)N(C1CCC(=O)NC1=O)C2=O (racemic) [racemic pomalidomide, 4-amino-2-(2,6-dixopiperidin-3-yl)isoindoline-1,3-dione]
0.0933 µM | – | 0.0572 µM | Nc1cccc2c1C(=O)N([C@@H]1CCC(=O)NC1=O)C2=O [(R)-pomalidomide]
0.0039 µM | – | 0.0124 µM | Nc1cccc2c1C(=O)N([C@H]1CCC(=O)NC1=O)C2=O [(S)-pomalidomide]
